# Molecular target: α7-subtype of nicotinic receptors (Mus musculus, UniProt P49582)
# Format: in vivo, mice
# Conditions: ex vivo, mouse hippocampal membranes; dose inhibiting specific binding of 3H-α-bungarotoxin (1 nM) by 50%
# Chain of α7-subtype of nicotinic receptors (P49582 23-502): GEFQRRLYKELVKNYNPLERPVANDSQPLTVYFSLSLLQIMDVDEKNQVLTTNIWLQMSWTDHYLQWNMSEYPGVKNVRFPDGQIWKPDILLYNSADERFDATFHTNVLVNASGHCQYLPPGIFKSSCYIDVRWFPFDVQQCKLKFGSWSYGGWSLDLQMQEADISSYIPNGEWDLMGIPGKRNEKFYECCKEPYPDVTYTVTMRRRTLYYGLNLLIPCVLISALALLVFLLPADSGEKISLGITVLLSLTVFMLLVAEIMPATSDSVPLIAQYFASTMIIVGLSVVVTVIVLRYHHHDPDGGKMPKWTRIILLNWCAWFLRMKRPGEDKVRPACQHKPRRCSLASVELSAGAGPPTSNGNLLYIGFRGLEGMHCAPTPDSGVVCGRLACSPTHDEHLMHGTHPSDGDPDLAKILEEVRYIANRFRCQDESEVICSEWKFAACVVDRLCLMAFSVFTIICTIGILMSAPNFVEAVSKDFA
compound,measurement,value
"[O-][N+]12CCC(CC1)N(c1nnc(-c3ccoc3)o1)CC2 [Compound 1, 4-(5-Furan-3-yl-[1,3,4]oxadiazol-2-yl)-1,4-diaza-bicyclo[3.2.2]nonane 1-oxide]","EC50 (mg/kg), Inhibition of 3H-α-Bungarotoxine Binding",40 mg/kg
